Measured values reported in PMC9146942 (International Journal of Molecular Sciences, 2022).
“Also recorded” adds a separate entry of the source. Where two headings read alike, the source gives them in different places.

Experiments:
human Panx1 channels = molecular target: T1, human Panx1 channels (Homo sapiens, UniProt Q96RD7); assay: Panx1 channel activity assay (extracellular ATP release after osmotic shock); format: cell-based; conditions: for Effect on extracellular ATP release / Panx1 channel activity (in words): 45 min exposure, six concentrations BC/10 to BCx10; for Concentration with significant inhibition of Panx1 channel activity (extracellular ATP release): 45 min exposure (15 min preincubation + 30 min osmotic buffer), combination given as final lopinavir concentration
T1 construct: expressed in transfected cells; host or cells: Dubca cells, transduced, stably overexpressing human Panx1
T1 sequence (Q96RD7 whole entry): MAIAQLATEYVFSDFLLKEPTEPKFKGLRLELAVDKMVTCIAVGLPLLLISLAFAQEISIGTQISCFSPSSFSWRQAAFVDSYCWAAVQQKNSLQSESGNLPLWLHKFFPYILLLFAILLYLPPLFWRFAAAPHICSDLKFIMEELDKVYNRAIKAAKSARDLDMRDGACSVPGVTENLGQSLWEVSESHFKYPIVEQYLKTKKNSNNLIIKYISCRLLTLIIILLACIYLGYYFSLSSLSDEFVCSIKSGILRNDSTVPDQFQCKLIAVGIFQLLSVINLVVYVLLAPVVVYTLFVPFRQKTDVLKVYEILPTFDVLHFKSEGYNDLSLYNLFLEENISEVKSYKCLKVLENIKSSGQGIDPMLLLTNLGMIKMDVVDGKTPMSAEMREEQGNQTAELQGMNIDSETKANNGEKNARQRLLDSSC

[1] = test system: transduced Dubca cells overexpressing human Panx1; assay: Cell viability (MTT) assay, 24 h exposure, for CC10 determination; conditions: sigmoidal curve fit
[2] = cited from earlier work
[3] = test system: transduced Dubca cells overexpressing human Panx1; conditions: dromedary camel
Panx1 mRNA expression = Panx1 mRNA expression by RT-qPCR analysis; format: cell-based, human; conditions: 24 h exposure, BC, BC/2, BC/10
Panx1 protein expression = Panx1 protein expression by immunoblot analysis; format: cell-based, human; conditions: 24 h exposure, BC, BC/2, BC/10; total Panx1 and glycosylated isoforms
[4] = Cell viability (MTT) assay, 45 min exposure in classic buffer; conditions: dromedary camel, transduced Dubca cells overexpressing human Panx1
[5] = maximum plasma concentration extracted from literature and recalculated to µM, reference per cell

Row | SMILES | Effect on extracellular ATP release / Panx1 channel activity (in words) (human Panx1 channels) | CC10 (concentration inducing 10% of cell death) [1] [µM] | Cmax [2, 5] [µM] | CC10 (concentration inducing 10% of cell death) [3] [µM] | Effect on Panx1 mRNA levels (Panx1 mRNA expression) | Effect on Panx1 protein levels (Panx1 protein expression) | also measured
1 | CC(C)c1nc(CN(C)C(=O)N[C@H](C(=O)N[C@@H](Cc2ccccc2)C[C@H](O)[C@H](Cc2ccccc2)NC(=O)OCc2cncs2)C(C)C)cs1 [Ritonavir, ritonavir] | did not decrease extracellular ATP release | 12 | 22.5 | – | – | – | –
2 | CCC(CC)COC(=O)[C@H](C)N[P@](=O)(OC[C@H]1O[C@@](C#N)(c2ccc3c(N)ncnn23)[C@H](O)[C@@H]1O)Oc1ccccc1 [Remdesivir] | comparable concentration-dependent trend | – | 9.03 | >100 | – | – | –
3 | Cc1cccc(C)c1OCC(=O)N[C@@H](Cc1ccccc1)[C@@H](O)C[C@H](Cc1ccccc1)NC(=O)[C@H](C(C)C)N1CCCNC1=O [Lopinavir, lopinavir] | significant decrease in extracellular ATP release; also recorded: inhibit Panx1 channel activity | 17 | – | – | without affecting mRNA or protein levels | without affecting mRNA or protein levels | Concentration with significant inhibition of Panx1 channel activity (extracellular ATP release) (human Panx1 channels): 85 µM
4 | NC(=O)c1nc(F)c[nH]c1=O [Favipiravir, favipiravir] | significant decrease in extracellular ATP release; also recorded: inhibit Panx1 channel activity | >200 | – | – | without affecting mRNA or protein levels | without affecting mRNA or protein levels | Cmax ([2]; in vivo): 53.4 µM
5 | CCN(CC)CCCC(C)Nc1ccnc2cc(Cl)ccc12 (stereo not drawn) [Chloroquine (diphosphate), chloroquine diphosphate] | – | – | 0.81 | 18 | – | – | –
6 | CCN(CCO)CCCC(C)Nc1ccnc2cc(Cl)ccc12 (stereo not drawn) [Hydroxychloroquine (sulphate), hydroxychloroquine sulphate] | – | 23 | 0.97 | – | without affecting mRNA or protein levels | without affecting mRNA or protein levels | Concentration with significant inhibition of Panx1 channel activity (extracellular ATP release) (human Panx1 channels): 23 µM; Effect on extracellular ATP release / Panx1 channel activity (in words) (human Panx1 channels; listed as hydroxychloroquine): inhibit Panx1 channel activity; Effect on extracellular ATP release / Panx1 channel activity (in words) (human Panx1 channels; listed as hydroxychloroquine sulphate): significant decrease in extracellular ATP release
7 | CC[C@H]1OC(=O)[C@H](C)[C@@H](O[C@H]2C[C@@](C)(OC)[C@@H](O)[C@H](C)O2)[C@H](C)[C@@H](O[C@@H]2O[C@H](C)C[C@H](N(C)C)[C@H]2O)[C@](C)(O)C[C@@H](C)CN(C)[C@H](C)[C@@H](O)[C@]1(C)O [Azithromycin (dihydrate), azithromycin dihydrate] | – | 59 | 0.52 | – | – | – | viability at 45 min, 590 µM [4]: 74%
8 | C[C@@H]1C[C@H]2[C@@H]3CCC4=CC(=O)C=C[C@]4(C)[C@@]3(F)[C@@H](O)C[C@]2(C)[C@@]1(O)C(=O)CO [Dexamethasone, dexamethasone] | – | – | 0.63 | >200 | – | – | –
